Data on 13 molecules can be found in PubChem BioAssay AID220 (DTP/NCI, 2004).

In the assay the test system is CD8F1 mice, subcutaneous mammary adenocarcinoma, T/C%. The assay can be described thus: NCI In Vivo Anticancer Drug Screen. Data for tumor model Mammary Adenocarcinoma CD8F1 (subcutaneous) in CD8F1. The following applies: higher = larger tumour. On the procedure:
The antitumor activity of compounds was measured in mice bearing transplantable tumors. Survival or tumor size were measured and the results are expressed as the measurement made in the treated group (T) divided by the measurement made in the vehicle treated control group (C). The tumor model used in this assay is Mammary Adenocarcinoma CD8F1 (subcutaneous) in CD8F1

Setting [1] is: endpoint: median tumor weight (est.), dose: 8.0 mg/kg/injection, schedule: Q07DX005 (ip), vehicle: suspension in saline.

Several values for one entry are separate records, joined by “and”; a condition that tells them apart may be missing. Identical values can stand only once. Inconclusive results are not listed.

With `CC1=C(C)C(=O)O[C@@H]([C@](C)(O)[C@]2(O)CC[C@@]3(O)[C@@H]4C[C@H]5O[C@]56[C@@H](O)C=CC(=O)[C@]6(C)[C@H]4CC[C@]23C)C1`, the T/C reads like this: (endpoint: median tumor weight change, dose: 18.75 mg/kg/injection, schedule: Q01DX001 (ip), vehicle: saline) 104 % of control; (endpoint: median tumor weight change, dose: 37.5 mg/kg/injection, schedule: Q01DX001 (ip), vehicle: saline) 63 % of control; (endpoint: median tumor weight change, dose: 75.0 mg/kg/injection, schedule: Q01DX001 (ip), vehicle: saline) 61 % of control.
On to `CCC1OCC(C(Cl)CCl)O1` (stereo not given), for which the T/C by setting is: (endpoint: median tumor weight (est.), dose: 25.0 mg/kg/injection, schedule: Q07DX005 (ip), vehicle: Klucel (hydroxypropylcellulose) (HPC)) 93 % of control; (endpoint: median tumor weight (est.), dose: 50.0 mg/kg/injection, schedule: Q07DX005 (ip), vehicle: Klucel (hydroxypropylcellulose) (HPC)) 109 % of control; (endpoint: median tumor weight (est.), dose: 100.0 mg/kg/injection, schedule: Q07DX005 (ip), vehicle: Klucel (hydroxypropylcellulose) (HPC)) 74 % of control.
Consider `CCCNC1=C(C)C(=O)C2=C(C1=O)[C@H](COC(N)=O)[C@]1(OC)[C@@H]3N[C@@H]3CN21`, for which the T/C was 7 % of control (endpoint: median tumor weight change, dose: 3.75 mg/kg/injection, schedule: Q01DX001 (ip), vehicle: saline); 13 % of control (endpoint: median tumor weight change, dose: 7.5 mg/kg/injection, schedule: Q01DX001 (ip), vehicle: saline); -66 % of control (endpoint: median tumor weight change, dose: 15.0 mg/kg/injection, schedule: Q01DX001 (ip), vehicle: saline).
For the molecule `CCCCCc1cc(/C=C2/N=C(c3ccc[nH]3)C=C2OC)[nH]c1C`, the T/C (endpoint: median tumor weight (est.), dose: 0.5 mg/kg/injection, schedule: Q07DX005 (ip), vehicle: suspension in saline) is 169 % of control; the T/C (endpoint: median tumor weight (est.), dose: 1.0 mg/kg/injection, schedule: Q07DX005 (ip), vehicle: suspension in saline) was 85 % of control; the T/C (endpoint: median tumor weight (est.), dose: 4.0 mg/kg/injection, schedule: Q07DX005 (ip), vehicle: suspension in saline) is 82 % of control; the T/C under setting [1] was 95 % of control.
With `CN(C)C1C(=O)C(C(=O)NP(=O)(NCCCO)N(CCCl)CCCl)=C(O)C2(O)C(=O)C3=C(O)c4c(O)cccc4C(C)(O)C3CC12` (stereo not given), the T/C reads like this: (endpoint: median tumor weight change, dose: 250.0 mg/kg/injection, schedule: Q01DX001 (ip), vehicle: saline with Tween-80) 46 % of control and 69 % of control; (endpoint: median tumor weight change, dose: 500.0 mg/kg/injection, schedule: Q01DX001 (ip), vehicle: saline with Tween-80) 21 % of control.
For `CC(C)NC(=O)N(CCCCBr)N=O`, the T/C is, setting by setting: (endpoint: median tumor weight change, dose: 49.37 mg/kg/injection, schedule: Q01DX001 (ip), vehicle: Klucel (hydroxypropylcellulose) (HPC)) 43 % of control; (endpoint: median tumor weight change, dose: 62.0 mg/kg/injection, schedule: Q01DX001 (ip), vehicle: Klucel (hydroxypropylcellulose) (HPC)) 42 % of control; (endpoint: median tumor weight change, dose: 98.75 mg/kg/injection, schedule: Q01DX001 (ip), vehicle: Klucel (hydroxypropylcellulose) (HPC)) 34 % of control; (endpoint: median tumor weight change, dose: 197.5 mg/kg/injection, schedule: Q01DX001 (ip), vehicle: Klucel (hydroxypropylcellulose) (HPC)) -13 % of control; (endpoint: median tumor weight change, dose: 395.0 mg/kg/injection, schedule: Q01DX001 (ip), vehicle: Klucel (hydroxypropylcellulose) (HPC)) -66 % of control; (endpoint: median tumor weight change, dose: 500.0 mg/kg/injection, schedule: Q01DX001 (ip), vehicle: Klucel (hydroxypropylcellulose) (HPC)) -41 % of control.
In the case of `COc1ccc2c(c1)C(O)(CN)CCCCC(OC)CCCC2` (stereo not given), the T/C (endpoint: median tumor weight change, dose: 62.5 mg/kg/injection, schedule: Q01DX001 (ip), vehicle: Klucel (hydroxypropylcellulose) (HPC)) was 121 % of control.
Turning to `CC1OC(OC2CC(O)(C(=O)CO)Cc3c(O)c4c(c(O)c32)C(=O)c2ccccc2C4=O)CC(N)C1O` (stereo not given), the T/C by setting is: (endpoint: mean tumor weight, dose: 0.12 mg/kg/injection, schedule: Q07DX006 (ip), vehicle: saline) 40 % of control; (endpoint: mean tumor weight, dose: 0.5 mg/kg/injection, schedule: Q07DX006 (ip), vehicle: saline) 1 % of control; (endpoint: median tumor weight change, dose: 0.31 mg/kg/injection, schedule: Q01DX001 (ip), vehicle: water) 67 % of control; (endpoint: median tumor weight change, dose: 0.62 mg/kg/injection, schedule: Q01DX001 (ip), vehicle: water) 37 % of control; (endpoint: median tumor weight change, dose: 1.25 mg/kg/injection, schedule: Q01DX001 (ip), vehicle: water) 26 % of control and 28 % of control.
As for `CC[C@](O)(C(=O)O)c1cc2n(c(=O)c1CO)Cc1cc3ccccc3nc1-2`, the T/C reads like this: (endpoint: mean tumor weight (est.), dose: 20.0 mg/kg/injection, schedule: Q07DX004 (ip), vehicle: saline) 70 % of control; (endpoint: mean tumor weight (est.), dose: 40.0 mg/kg/injection, schedule: Q07DX004 (ip), vehicle: saline) 61 % of control; (endpoint: mean tumor weight (est.), dose: 60.0 mg/kg/injection, schedule: Q07DX004 (ip), vehicle: saline) 48 % of control; (endpoint: mean tumor weight, dose: 2.5 mg/kg/injection, schedule: Q01DX009 (ip), vehicle: saline) 55 % of control; (endpoint: mean tumor weight, dose: 10.0 mg/kg/injection, schedule: Q07DX006 (ip), vehicle: saline) 13 % of control; (endpoint: mean tumor weight, dose: 20.0 mg/kg/injection, schedule: Q07DX006 (ip), vehicle: saline) 36 % of control and 42 % of control. Moreover, the T/C (endpoint: mean tumor weight, dose: 20.0 mg/kg/injection, schedule: Q07DX007 (ip), vehicle: saline) was 102 % of control; the T/C (endpoint: mean tumor weight, dose: 40.0 mg/kg/injection, schedule: Q07DX006 (ip), vehicle: saline) was 23 % of control; the T/C (endpoint: mean tumor weight, dose: 40.0 mg/kg/injection, schedule: Q07DX007 (ip), vehicle: saline) is 71 % of control; the T/C (endpoint: mean tumor weight, dose: 60.0 mg/kg/injection, schedule: Q07DX006 (ip), vehicle: saline) was 2 % of control; the T/C (endpoint: mean tumor weight, dose: 80.0 mg/kg/injection, schedule: Q07DX007 (ip), vehicle: saline) was 49 % of control; the T/C (endpoint: median tumor weight (est.), dose: 6.25 mg/kg/injection, schedule: Q07DX005 (ip), vehicle: saline) is 58 % of control. The T/C (endpoint: median tumor weight (est.), dose: 12.5 mg/kg/injection, schedule: Q07DX005 (ip), vehicle: saline) is 59 % of control and the T/C (endpoint: median tumor weight (est.), dose: 25.0 mg/kg/injection, schedule: Q07DX005 (ip), vehicle: saline) was 41 % of control.
In the case of `C/C=C(\C)c1cc(=O)c2c(C)cc3c(c2o1)C(=O)c1c(O)c(C2CC(C)(N(C)C)C(O)C(C)O2)cc(C2CC(N(C)C)C(O)C(C)O2)c1C3=O` (stereo not given), the T/C runs as follows: (endpoint: median tumor weight change, dose: 0.16 mg/kg/injection, schedule: Q01DX001 (ip), vehicle: saline) 78 % of control; (endpoint: median tumor weight change, dose: 0.31 mg/kg/injection, schedule: Q01DX001 (ip), vehicle: saline) 51 % of control; (endpoint: median tumor weight change, dose: 0.62 mg/kg/injection, schedule: Q01DX001 (ip), vehicle: saline) 52 % of control; (endpoint: median tumor weight change, dose: 2.5 mg/kg/injection, schedule: Q01DX001 (ip), vehicle: suspension in saline) 61 % of control; (endpoint: median tumor weight change, dose: 5.0 mg/kg/injection, schedule: Q01DX001 (ip), vehicle: suspension in saline) 42 % of control; (endpoint: median tumor weight change, dose: 10.0 mg/kg/injection, schedule: Q01DX001 (ip), vehicle: saline) -9 % of control.
Take `CN=C(N)N/N=C(\C)c1ccc2oc3ccc(/C(C)=N/NC(N)=NC)cc3c2c1`: the T/C (endpoint: median tumor weight change, dose: 62.5 mg/kg/injection, schedule: Q01DX001 (ip), vehicle: saline with Tween-80) is 87 % of control and the T/C (endpoint: median tumor weight change, dose: 125.0 mg/kg/injection, schedule: Q01DX001 (ip), vehicle: saline with Tween-80) is 63 % of control.
Turning to `CN(C)C(=O)c1cccc(COc2ccc(N3C(N)=NC(N)=NC3(C)C)cc2Cl)c1`, the T/C runs as follows: under setting [1], 154 % of control; (endpoint: median tumor weight (est.), dose: 16.0 mg/kg/injection, schedule: Q07DX005 (ip), vehicle: suspension in saline) 57 % of control; (endpoint: median tumor weight (est.), dose: 32.0 mg/kg/injection, schedule: Q07DX005 (ip), vehicle: suspension in saline) 64 % of control.
As to `CC(=O)c1c(O)c(C)c(O)c2c1OC1=CC(=O)C(C(C)=O)C(=O)C12C` (stereo not given), the T/C runs as follows: (endpoint: median tumor weight (est.), dose: 12.5 mg/kg/injection, schedule: Q07DX004 (ip), vehicle: gum acacia) 44 % of control; (endpoint: median tumor weight (est.), dose: 12.5 mg/kg/injection, schedule: Q07DX005 (ip), vehicle: gum acacia) 95 % of control; (endpoint: median tumor weight (est.), dose: 25.0 mg/kg/injection, schedule: Q07DX004 (ip), vehicle: gum acacia) 78 % of control; (endpoint: median tumor weight (est.), dose: 25.0 mg/kg/injection, schedule: Q07DX005 (ip), vehicle: gum acacia) 120 % of control; (endpoint: median tumor weight (est.), dose: 50.0 mg/kg/injection, schedule: Q04DX005 (ip), vehicle: gum acacia) 79 % of control and 97 % of control; (endpoint: median tumor weight (est.), dose: 50.0 mg/kg/injection, schedule: Q07DX004 (ip), vehicle: gum acacia) 85 % of control. The T/C was 85 % of control (endpoint: median tumor weight (est.), dose: 50.0 mg/kg/injection, schedule: Q07DX005 (ip), vehicle: gum acacia); 114 % of control (endpoint: median tumor weight (est.), dose: 100.0 mg/kg/injection, schedule: Q07DX004 (ip), vehicle: gum acacia); 74 % of control (endpoint: median tumor weight (est.), dose: 100.0 mg/kg/injection, schedule: Q07DX005 (ip), vehicle: gum acacia); 102 % of control (endpoint: median tumor weight (est.), dose: 200.0 mg/kg/injection, schedule: Q07DX005 (ip), vehicle: gum acacia); 97 % of control (endpoint: median tumor weight (est.), dose: 400.0 mg/kg/injection, schedule: Q04DX005 (ip), vehicle: gum acacia); 42 % of control (endpoint: median tumor weight (est.), dose: 400.0 mg/kg/injection, schedule: Q07DX004 (ip), vehicle: gum acacia). The T/C (endpoint: median tumor weight (est.), dose: 400.0 mg/kg/injection, schedule: Q07DX005 (ip), vehicle: gum acacia) was 96 % of control.
